Results from patent US20220380829A1, “Method of Diagonosizing Pathogens and their Antimicrobial Susceptibility” (HANGZHOU DIAN MEDICAL LABORATORY CO., LTD., priority 2019, published 2022).

Tests used:
[1] = tested on: Enterococcus faecalis; experiment: VITEK2 Compact AST (AST-P639 cards), gold standard culture-based AST; format: cell-based
[2] = tested on: Streptococcus pneumoniae; experiment: VITEK2 Compact AST (AST-GP68 cards) with penicillin disc diffusion, gold standard culture-based AST; format: cell-based
Experimental: (§1) Step 1. Drug susceptibility verification: The Streptococcus pneumoniae isolates were tested for drug susceptibility using bioMérieux Vitek2 Compact System and AST-GP68 cards, and specifically, the susceptibility of penicillin was double checked by disc diffusion method (OXOID, CT0043B), and the combined results were used as the gold standard (culture-based AST).
as §1, with “Sample collection and drug” for “Drug”, “48 clinical” for “The”, “pneumoniae isolates were collected from 18 hospitals across china in a period between May 2017 and October 2019. All” for “pneumoniae”, “card,” for “cards,”

[3] = Resistance profile classification A
[4] = Resistance profile classification B
[5] = Resistance profile classification C
[6] = Resistance profile classification D
[7] = Resistance profile classification F (first line so labelled, r12)
[8] = Resistance profile classification F (second line so labelled, r13)
[9] = Resistance profile classification G
[10] = Resistance profile classification H
[11] = Resistance profile classification I
[12] = Resistance profile classification J
[13] = Resistance profile classification K
[14] = Resistance profile classification L
[15] = Resistance profile classification M
[16] = Resistance profile classification S
Also: key: ‘R’ indicates drug-resistant; ‘S’ indicates drug-susceptible.

Structure (SMILES)	Susceptibility of Emterococcus faecalis to 11 antibacterial drugs [1, 3]	Susceptibility of Emterococcus faecalis to 11 antibacterial drugs [1, 4]	Susceptibility of Emterococcus faecalis to 11 antibacterial drugs [1, 5]	Susceptibility of Emterococcus faecalis to 11 antibacterial drugs [1, 6]	Susceptibility of Emterococcus faecalis to 11 antibacterial drugs [1, 7]	Susceptibility of Emterococcus faecalis to 11 antibacterial drugs [1, 8]	Susceptibility of Emterococcus faecalis to 11 antibacterial drugs [1, 9]	Susceptibility of Emterococcus faecalis to 11 antibacterial drugs [1, 10]	Susceptibility of Emterococcus faecalis to 11 antibacterial drugs [1, 11]	Susceptibility of Emterococcus faecalis to 11 antibacterial drugs [1, 12]	Susceptibility of Emterococcus faecalis to 11 antibacterial drugs [1, 13]	Susceptibility of Emterococcus faecalis to 11 antibacterial drugs [1, 14]	Susceptibility of Emterococcus faecalis to 11 antibacterial drugs [1, 15]	Susceptibility of Emterococcus faecalis to 11 antibacterial drugs [1, 16]	Blind 1 by AST [2]	blind 2 by AST [2]	further results
CC1(C)S[C@@H]2[C@H](NC(=O)[C@H](N)c3ccccc3)C(=O)N2[C@H]1C(=O)O [ampicillin]	R	R	R	R	R	R	S	S	S	S	S	S	S	S			Susceptibility of Streptococcus pneumoniae to 14 antibacterial drugs [2, 3]: R; Susceptibility of Streptococcus pneumoniae to 14 antibacterial drugs [2, 4]: R; Susceptibility of Streptococcus pneumoniae to 14 antibacterial drugs [2, 5]: R; Susceptibility of Streptococcus pneumoniae to 14 antibacterial drugs [2, 6]: R; Susceptibility of Streptococcus pneumoniae to 14 antibacterial drugs ([2]; Resistance profile classification E): R; Susceptibility of Streptococcus pneumoniae to 14 antibacterial drugs ([2]; Resistance profile classification F): R; Susceptibility of Streptococcus pneumoniae to 14 antibacterial drugs [2, 9]: S; Susceptibility of Streptococcus pneumoniae to 14 antibacterial drugs [2, 10]: S; Susceptibility of Streptococcus pneumoniae to 14 antibacterial drugs [2, 11]: S; Susceptibility of Streptococcus pneumoniae to 14 antibacterial drugs [2, 12]: S; Susceptibility of Streptococcus pneumoniae to 14 antibacterial drugs [2, 16]: S
CO/N=C(\C(=O)N[C@@H]1C(=O)N2C(C(=O)[O-])=C(C[N+]3(C)CCCC3)CS[C@H]12)c1csc(N)n1 [cefepime]															S	R	
CO/N=C(\C(=O)N[C@@H]1C(=O)N2C(C(=O)O)=C(COC(C)=O)CS[C@H]12)c1csc(N)n1 [cefotaxime]															S	R	
CO/N=C(\C(=O)N[C@@H]1C(=O)N2C(C(=O)O)=C(CSc3nc(=O)c(=O)[nH]n3C)CS[C@H]12)c1csc(N)n1 [ceftriaxone]															S	R	
CCCCCCCCCC(=O)N[C@@H](Cc1c[nH]c2ccccc12)C(=O)N[C@H](CC(N)=O)C(=O)N[C@@H](CC(=O)O)C(=O)N[C@@H]1C(=O)NCC(=O)N[C@@H](CCCN)C(=O)N[C@@H](CC(=O)O)C(=O)N[C@H](C)C(=O)N[C@@H](CC(=O)O)C(=O)NCC(=O)N[C@H](CO)C(=O)N[C@@H]([C@H](C)CC(=O)O)C(=O)N[C@@H](CC(=O)c2ccccc2N)C(=O)O[C@@H]1C [daptomycin]	S	S	S	S	S	S	S	S	S	S	S	S	S	S			
C[C@@H](O)[C@H]1C(=O)N2C(C(=O)O)=C(S[C@@H]3CN[C@H](C(=O)Nc4cccc(C(=O)O)c4)C3)[C@H](C)[C@H]12 [ertapenem]															S	S	
CC[C@H]1OC(=O)[C@H](C)[C@@H](O[C@H]2C[C@@](C)(OC)[C@@H](O)[C@H](C)O2)[C@H](C)[C@@H](O[C@@H]2O[C@H](C)C[C@H](N(C)C)[C@H]2O)[C@](C)(O)C[C@@H](C)C(=O)[C@H](C)[C@@H](O)[C@]1(C)O [erythromycin]	R	R	R	S	R	R	R	R	R	R	S	S	S	S	R	R	
